Patent US7657076B2, “Characterizing biological stimuli by response curves” (Cytokinetics, Inc., priority 2001, dated 2010)

Assays:
[1] = tested on: microtubule assembly; conditions: review of the literature; cited from earlier work
[2] = tested on: HUVEC, A498, A548, SF268, SKOV3, and DU145; experiment: Multivariate quantitative phenotype dose response by image analysis (tubulin feature); assay type: cell-based, human
From the text: As indicated, phenotypic vectors for given stimuli and level combinations may include multivariate information taken from different cell lines. However, this need not be the case, as all the multivariate data of interest may be obtained from a single cell line. Generally, a researcher will chose one or a range of cell lines that are relevant to the area of interest. For example, if the researcher focuses on oncology applications, the cell lines chosen may include different types of cancers and possibly other cells lines that allow one to identify typical side effects of anti cancer drugs. In one specific embodiment pertaining to oncology, six different cell lines are considered. These include HUVEC (human umbilical vein endothelial cells), A498, A548, SF268, SKOV3, and DU145.
In a more specific embodiment, the parameter set for each dose/compound point in a response path includes parameters derived from DNA markers, Golgi markers, and tubulin markers. […] The size of the nuclei as derived from a DNA marker. […]
The data points are presented within the first three principal components obtained for the entire data set. […] The specific features and cell lines used to construct the quantitative phenotypes shown as points in the plot are set forth above in the “Multivariate Phenotypic Data from Images” and “Selecting Experiments for Providing Response Paths” sections. […]

C=C1[C@@H](C)[C@H]2[C@H](Cc3ccccc3)NC(=O)[C@]23OC(=O)/C=C/C(=O)CCC[C@@H](C)C/C=C/[C@H]3[C@@H]1O [Cytochalasin A]
effect on microtubule assembly [1]: interferes with microtubule assembly by reacting with sulfhydryl groups | change in tubulin biological features with increasing concentration ([2]; all cell lines, eight concentrations): lack of an increase in the tubulin features | affinity of the microtubule side effect compared with affinity for actin ([2]; inferred from common PCA trajectory at lower concentrations): lower affinity
